This note sets out measurements from publication doi:10.1101/2025.03.03.641193, “Trihydroxybenzaldoximes are redox cycling inhibitors of ThDP-dependent DXP synthase” (bioRxiv, 2025).

One experiment deals with T1, EcDXPS (Escherichia coli, UniProt P77488).
T1 construct: made in house
As to the kind of experiment: Inhibition in the presence of CAT or ascorbate. It is filed as biochemical, E. coli. The procedure: Given that CAT prevents nonenzymatic oxidative decarboxylation of pyruvate (Fig S8, S12), but influences the redox state of 1, we evaluated the inhibitory activity of 1 in the presence of CAT (Fig 6). […] In this experiment, 1 was incubated at 25 °C for 5 min in the presence of DXPS, IspC, and either CAT or ascorbate prior to initiation by addition of pyruvate and D-GAP. […] In the presence of ascorbate, 1 is primarily in the reduced form according to NMR (Fig S10).
Reaction solutions were prepared containing EcDXPS (150 nM). Solutions contained either DXPS alone or were supplemented with CAT (0.25 mg/mL) or ascorbate (5 mM). Reaction mixtures were incubated with either water or 1 (100 μM) for 5 min at 25 °C. Reactions were initiated with a mixture of pyruvate (110 μM) and GAP (60 μM), or water for background controls. Immediately following initiation, NADPH depletion was monitored at 340 nm at 25 °C for 7.5 min with a 14 second time interval. Initial velocities of DXP formation were measured as described above and arithmetically corrected for background rates and normalized to the DXPS only control reaction for comparison. Reactions were performed in triplicate, and % inhibition was determined arithmetically from initial velocities. Reported standard errors of the mean for Kis are calculated from three replicates.

The target of a further experiment is T2, D427A DXPS (Escherichia coli, UniProt P77488, D427A).
T2 construct: made in house
Briefly: DXPS-IspC coupled assay, D427A variant. It is filed as biochemical, E. coli. As for the experimental part: To determine the role of active site network residues in the activity of oximes, inhibitory activity of 1 was assessed against EcD427A, EcH431A, and EcR99A by the DXPS-IspC coupled assay[41],[42] (Fig 4B, S3, Table S1). Ki determination was performed by varying [pyruvate] in order to assess the impact of residue substitutions on the uncompetitive mode of inhibition. […] (8.7 ± 1.2 μM, Fig S3, Table S1).
Inhibitory activity of compounds against DXPS were monitored via a continuous spectrophotometric coupled assay with DXPS and IspC as previously described.[41],[42] […]
When varying pyruvate (0–500 μM), GAP was maintained at 50 μM (3 mM for R478A). […] Immediately following initiation, NADPH depletion was monitored at 340 nm at 25 °C for 7–10 min with a 14–20 second time interval. Initial velocities of DXP formation were determined from the linear portion of the NADPH decay. […] Initial velocities were plotted vs. substrate concentration, and the data were fit to equation 1 (mixed model), 2 (competitive), or 3 (uncompetitive) based on the calculated α value and goodness of fit in GraphPad Prism. Reported standard errors of the mean for Kis are calculated from three replicates.

In the next experiment the target is T3, WT EcDXPS (Escherichia coli, UniProt P77488).
T3 construct: made in house
Briefly: Anaerobic apparent Ki, DXPS-IspC coupled assay. It is filed as biochemical, E. coli. The procedure: (§1) Inhibitory activity of compounds against DXPS were monitored via a continuous spectrophotometric coupled assay with DXPS and IspC as previously described.[41],[42] Briefly, Reaction mixtures containing HEPES (100 mM, pH 8.0), MgCl2 (2 mM), NaCl (5 mM), ThDP (1 mM), BSA (1 mg/mL), DXPS (125–500 nM), IspC (1.7 μM), NADPH (160 μM), DMSO (5%, v/v), and inhibitor (0–200 μM) were preincubated at 25 °C (or chamber temperature 25–30 °C) for 5 min. Enzymatic reactions were initiated via the addition of 20 μL of a 10x substrate mix for a final well volume of 200 μL. Reactions were performed in triplicate unless otherwise noted. See the following sections for details and modifications.
Reaction components were brought into the anaerobic chamber and allowed to deoxygenate for ~2 hours. WT EcDXPS was used at 125 nM. When varying pyruvate (0–500 μM), GAP was maintained at 50 μM. When varying GAP (0–500 μM), pyruvate was maintained at 500 μM. Reactions were incubated and initiated as described above. Immediately following initiation, NADPH depletion was monitored at 340 nm at chamber temperature (25–30 °C) for 5 min with a ~17 second time interval. Initial velocities of DXP formation were determined as above, plotted vs. substrate concentration, and the data were fit to either equation 2, or 3 based on the calculated α value and goodness of fit in GraphPad Prism. Reported standard errors of the mean for Kis are calculated from three replicates.

Another experiment has as its target T4, R478A DXPS (Escherichia coli, UniProt P77488, R478A).
T4 construct: made in house
As to the kind of experiment: DXPS-IspC coupled assay, R478A variant. It is filed as biochemical, E. coli. As for the experimental part:
In this experiment, pyruvate was varied from 12.5–500 μM and D-GAP was maintained at 2x Km.. […] Thus, it appears that EcR478A is not absolutely critical for binding 1.
as §1
When varying pyruvate (0–500 μM), GAP was maintained at 50 μM (3 mM for R478A). When varying GAP (0–500 μM), pyruvate was maintained at 500 μM. The following [DXPS] were used when varying 1: WT EcDXPS, R478A, H431A, D427A (200 nM), R99A (500 nM), WT DrDXPS, WT PaDXPS (150 nM). Analogs 3 and 4 were tested using WT EcDXPS (150 nM). Reactions were incubated and initiated as described above. Immediately following initiation, NADPH depletion was monitored at 340 nm at 25 °C for 7–10 min with a 14–20 second time interval. Initial velocities of DXP formation were determined from the linear portion of the NADPH decay. Initial velocities were arithmetically corrected for background for compound 4. Initial velocities were plotted vs. substrate concentration, and the data were fit to equation 1 (mixed model), 2 (competitive), or 3 (uncompetitive) based on the calculated α value and goodness of fit in GraphPad Prism. Reported standard errors of the mean for Kis are calculated from three replicates.

Experiment [1] concerns the target T5, pyruvate decarboxylase (PDC) (Saccharomyces cerevisiae, UniProt P06169).
T5 construct: purchased Sigma Aldrich P9474; host or cells: baker's yeast
Briefly: Inhibition of PDC (ADH coupled assay). It is filed as biochemical, S. cerevisiae. The procedure: Reaction conditions were optimized from a previously reported assay.[38] Briefly, reaction mixtures containing MES (100 mM, pH 6.2), MgCl2 (2 mM), ThDP (5 mM), PDC (0.06 U/mL), ADH (16 U/mL), NADH (170 μM), and 1 (0 or 200 μM) were preincubated at 25 °C for 5 min. Enzymatic reactions were initiated via the addition of 20 μL of 10x pyruvate (final 1mM), or water for background controls, for a final well volume of 200 μL. Immediately following initiation, NADH depletion was monitored at 340 nm at 25 °C for 7 min with a 14 second time interval. Initial velocities of acetaldehyde formation were measured and arithmetically corrected for background rates. Standard errors of reported % inhibition values were determined from 3 replicates. pH controls were conducted with phosphate buffer (pH 7 and 8); background subtraction was not performed on these samples. Reported standard errors of the mean for Kis are calculated from three replicates.

Like-named read-outs stand apart in the source and are kept apart here.

In general, Ki refers to the dissociation constant of the complex between target and ligand, obtained from inhibition or displacement. A lower Ki goes with a stronger hold on the target. As to `ON=Cc1cc(O)c(O)cc1O` [compound 1, 2,4,5-trihydroxybenzaldoxime], the inhibition at 100 µM on EcDXPS (read-out: %Inhibition at 100 μM 1, Ascorbate 5 mM, aerobic, 100 μM) turned out to be 23%; at EcDXPS (read-out: %Inhibition at 100 μM 1, CAT 0.25 mg/mL, aerobic, 100 μM) it was 80%; at EcDXPS (read-out: %Inhibition at 100 μM 1, Control (DXPS alone), aerobic, 100 μM) it was 80 ± 0.5%. For the same molecule, the results for the inhibitory constant (Ki) at D427A DXPS and on R478A DXPS were 4.8 ± 0.2 µM and 15.7 ± 0.4 µM, respectively. Moreover, the MOI varying pyruvate entry on D427A DXPS (EcD427A) was “uncompetitive”; on WT EcDXPS (anaerobic, WT EcDXPS) it was “uncompetitive”; on R478A DXPS (EcR478A), “uncompetitive”. The “Ki (+O2)/ Ki (-O2)” value on WT EcDXPS (- O2) is given as ~ 10. For the same molecule, the “MOI varying D-GAP” value on WT EcDXPS (anaerobic, WT EcDXPS) is “competitive”. Further, the “Ki/Ki^wt” value at R478A DXPS (R478A, vary pyruvate, fold reduction in potency vs WT) was ~ 3. Besides, in experiment [1] (200 μM, phosphate buffer pH 7 and 8), the “Inhibition of PDC at pH 7 or 8” value is recorded as “not observed”. In addition, the “%Inhibition at 200 μM 1” value in experiment [1] (PDC, MES pH 6.2, 200 μM) is given as ~ 14%. Also, the inhibition at 200 µM in experiment [1] (pH 6.2, PDC, MES pH 6.2, 200 μM, read-out: %Inhibition at 200 μM 1) stood at 14.2 ± 2.3%.
